Reference: US11523995B2, “Compositions and methods for ablating niche cells in testis and other epithelial cells and methods relating thereto” (Duke University, priority 2017, dated 2022)

System: Sertoli cells
Test: Inhibition of in vitro Sertoli cell ablation with BC by cell death pathway inhibitors
Format: cell-based, mouse
Conditions: 30 min inhibitor pre-treatment, 10 min BC, culture with inhibitor 4 days, neonatal testis
Method: Fragments of the mouse testis were incubated with 0.02% BC for 10 min. After washing several times with PBS, tissues were placed atop 1.5% agarose blocks (214530; Difco), prepared and placed in 6 well tissue culture plates (353046; Falcon) with ˜500 μl of 10% FBS+DMEM (11995-065; Gibco) to reach halfway up the side of the block. After culture, tissues were washed in PBS and fixed for immunofluorescence. The dog testis tissues were incubated with 0.02% or 0.03% BC for 10 min and cultured with 10% KnockOut Serum Replacement (KSR) (Invitrogen; 10828-028)+DMEM (Yokonishi, T., et al. Methods in Molecular Biology 927: 479-488 (2013)). The culture incubator was supplied with 5% (vol/vol) carbon dioxide in air and maintained at 37° C. Q-VD (OMe)-OPh (A8165; ApexBio), Necrostatin-1, Spautin-1 (Sigma; SML0440), 3-Methyladenine (Cayman; CAS 5142-23-4), LY294002 (Cayman; CAS 154447-36-6), Bafilomycin A1 (Cayman; CAS88899-55-2) were used as cell death inhibitors. Next, we investigated the Sertoli cell death pathway caused by BC treatment. Testes from neonatal pups were pre-treated with 1% DMSO (as a control) or with cell death pathway inhibitors, pan-caspase inhibitor, 2,6-difluorophenoxymethylketone-based inhibitor (Q-VD-OPH), necrosis inhibitor (Necrostatin-1) and autophagy inhibitors, Spautin-1, LY294002, or Bafilomycin A1, for 30 min. Pre-treatments were followed by a 10 min BC treatment, washing, and culture in the presence of the inhibitor for 4 days (FIG. 3).

Structure (SMILES)	rescue of Sertoli cells after BC treatment
Cn1cnc(N)c2ncnc1-2 [3MA, 3-Methyladenine]	partially rescued Sertoli cells
CO/C1=C\C(C)=C\[C@@H](C)[C@@H](O)[C@@H](C)C/C(C)=C/C=C/[C@H](OC)[C@@H]([C@@H](C)[C@@H](O)[C@H](C)[C@@]2(O)C[C@@H](O)[C@H](C)[C@@H](C(C)C)O2)OC1=O [Bafilomycin A1]	partially rescued Sertoli cells
CN1C(=O)C(Cc2c[nH]c3ccccc23)NC1=S (centres unmarked) [Necrostatin-1]	did not rescue Sertoli cells
COC(=O)C[C@H](NC(=O)[C@@H](NC(=O)c1ccc2ccccc2n1)C(C)C)C(=O)COc1c(F)cccc1F [Q-VD-OPH]	did not rescue Sertoli cells
Fc1ccc(CNc2ncnc3ccc(F)cc23)cc1 [Spautin-1]	partially rescued Sertoli cells
